Key:
Type in all cases: in vivo
[1] = test system: bermudagrass (Cynodon dactylon); experiment: Test B pre-/postemergence plant response
Text: (§1) Seeds of plant species selected from blackgrass (Alopecurus myosuroides), downy bromegrass (Bromus tectorum), green foxtail (Setaria viridis), Italian ryegrass (Lolium multiflorum), wheat (Triticum aestivum), wild oat (Avena fatua), deadnettle (henbit deadnettle, Lamium amplexicaule), galium (catchweed bedstraw, Galium aparine), bermudagrass (Cynodon dactylon), Surinam grass (Brachiaria decumbens), cocklebur (Xanthium strumarium), corn (Zea mays), large crabgrass (Digitaria sanguinalis), woolly cupgrass (Eriochloa villosa), giant foxtail (Setaria faberii), goosegrass (Eleusine indica), johnsongrass (Sorghum halepense), kochia (Kochia scoparia), lambsquarters (Chenopodium album), morningglory (Ipomoea coccinea), nightshade (eastern black nightshade, Solanum ptycanthum), yellow nutsedge (Cyperus esculentus), pigweed (Amaranthus retroflexus), ragweed (common ragweed, Ambrosia elatior), Russian thistle (Salsola kali), soybean (Glycine max), sunflower (common oilseed sunflower, Helianthus annuus) and velvetleaf (Abutilon theophrasti) were planted into a blend of loam soil and sand and treated preemergence with test compounds formulated in a non-phytotoxic solvent mixture which included a surfactant.
(§2) At the same time, plants selected from these crop and weed species and also winter barley (Hordeum vulgare), canarygrass (Phalaris minor), chickweed (Stellaria media) and windgrass (Apera spica-venti) were planted in pots containing Redi-Earth® planting medium (Scotts Company, 14111 Scottslawn Road, Marysville, Ohio 43041) comprising spaghnum peat moss, vermiculite, wetting agent and starter nutrients and treated with postemergence applications of some of the test chemicals formulated in the same manner. Plants ranged in height from 2 to 18 cm (1- to 4-leaf stage) for postemergence treatments.
(§3) Treated plants and controls were maintained in a greenhouse for 13 to 15 days, after which time all treated plants were visually evaluated and compared to controls. Plant response ratings, summarized in Table B, are based on a scale of 0 to 100 where 0 is no effect and 100 is complete control. A dash (-) response means no test result.

[2] = test system: lambsquarters (Chenopodium album); experiment: Test B pre-/postemergence plant response
Text: as §1, §2, §3

[3] = test system: Surinam grass (Brachiaria decumbens); experiment: Test B pre-/postemergence plant response
Text: as §1, §2, §3

[4] = test system: woolly cupgrass (Eriochloa villosa); experiment: Test B pre-/postemergence plant response
Text: as §1, §2, §3

[5] = test system: yellow nutsedge (Cyperus esculentus); experiment: Test B pre-/postemergence plant response
Text: as §1, §2, §3

[6] = test system: downy bromegrass (Bromus tectorum); experiment: Test B pre-/postemergence plant response
Text: as §1, §2, §3

[7] = test system: pigweed (Amaranthus retroflexus); experiment: Test B pre-/postemergence plant response
Text: as §1, §2, §3

[8] = test system: wheat (Triticum aestivum); experiment: Test B pre-/postemergence plant response
Text: as §1, §2, §3

[9] = test system: barnyardgrass (Echinochloa crus-galli); experiment: Test B flooded paddy test; conditions: for Plant response rating, Flood, Barnyardgrass: 250 g ai/ha, flooded paddy test, visual rating on 0 to 100 scale (0 no effect, 100 complete control) after 13 to 15 days; for Plant response rating, Barnyardgrass: Flood (flooded paddy test), 13 to 15 days
Outline: (§4)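 Each compound is added to standing floodwater (3 cm above soil, maintained) in pots of 2-leaf-stage plants; greenhouse exposure lasts 13–15 d before visual comparison with controls on a 0–100 control scale.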

[10] = test system: umbrella sedge (Cyperus difformis); experiment: Test B flooded paddy test; conditions: for Plant response rating, Flood, Sedge, Umbrella: 250 g ai/ha, flooded paddy test, visual rating on 0 to 100 scale (0 no effect, 100 complete control) after 13 to 15 days; for Plant response rating, Sedge, Umbrella: Flood (flooded paddy test), 13 to 15 days
Outline: as §4

[11] = test system: ducksalad (Heteranthera limosa); experiment: Test B flooded paddy test; conditions: for Plant response rating, Flood, Ducksalad: 250 g ai/ha, flooded paddy test, visual rating on 0 to 100 scale (0 no effect, 100 complete control) after 13 to 15 days; for Plant response rating, Ducksalad: Flood (flooded paddy test), 13 to 15 days
Outline: as §4

[12] = test system: rice (Oryza sativa); experiment: Test B flooded paddy test; conditions: for Plant response rating, Flood, Rice: 250 g ai/ha, flooded paddy test, visual rating on 0 to 100 scale (0 no effect, 100 complete control) after 13 to 15 days; for Plant response rating, Rice: Flood (flooded paddy test), 13 to 15 days
Outline: as §4

[13] = 250 g ai/ha, Preemergence, 0 to 100 scale
[14] = Postemergence, 62 g ai/ha, scale 0 (no effect) to 100 (complete control), 13 to 15 days
[15] = Postemergence, 125 g ai/ha, visual rating after 13 to 15 days, scale 0 (no effect) to 100 (complete control)
[16] = Postemergence, 250 g ai/ha, scale 0 to 100 (0 no effect, 100 complete control)
[17] = Preemergence, 31 g ai/ha, scale 0 to 100 (0 no effect, 100 complete control)
[18] = Preemergence, 62 g ai/ha, scale 0 to 100 (0 no effect, 100 complete control)
[19] = Preemergence, 125 g ai/ha, scale 0 to 100, 0 no effect, 100 complete control
[20] = 31 g ai/ha, postemergence, scale 0 to 100, 0 is no effect, 100 is complete control
[21] = 31 g ai/ha, scale of 0 to 100 where 0 is no effect and 100 is complete control
[22] = 62 g ai/ha, scale of 0 to 100 where 0 is no effect and 100 is complete control
[23] = 125 g ai/ha, scale 0 to 100, 0 is no effect, 100 is complete control

SMILES: O=C1CCCC(O)=C1C(=O)c1cnc(-c2ccccc2)n(CC2CCCO2)c1=O (stereo not shown) [Compound 59]
- Plant response rating, Bermudagrass [1, 13]: 98
- Plant response rating, Bermudagrass [1, 14]: 90
- Plant response rating, Bermudagrass [1, 15]: 98
- Plant response rating, Bermudagrass [1, 16]: 100
- Plant response rating, Bermudagrass [1, 17]: 10
- Plant response rating, Bermudagrass [1, 18]: 98
- Plant response rating, Bermudagrass [1, 19]: 98
- Plant response rating, Lambsquarters [2, 20]: 95
- Plant response rating, Lambsquarters [2, 13]: 100
- Plant response rating, Lambsquarters [2, 14]: 98
- Plant response rating, Lambsquarters [2, 15]: 100
- Plant response rating, Lambsquarters [2, 16]: 100
- Plant response rating, Lambsquarters [2, 17]: 98
- Plant response rating, Lambsquarters [2, 18]: 100
- Plant response rating, Lambsquarters [2, 19]: 100
- Plant response rating, Surinam Grass [3, 20]: 75
- Plant response rating, Surinam Grass [3, 14]: 80
- Plant response rating, Surinam Grass [3, 15]: 90
- Plant response rating, Surinam Grass [3, 16]: 90
- Plant response rating, Surinam Grass [3, 17]: 5
- Plant response rating, Surinam Grass [3, 18]: 75
- Plant response rating, Surinam Grass [3, 19]: 85
- Plant response rating, Cupgrass, Woolly [4, 20]: 75
- Plant response rating, Cupgrass, Woolly [4, 13]: 85
- Plant response rating, Cupgrass, Woolly [4, 14]: 75
- Plant response rating, Cupgrass, Woolly [4, 15]: 90
- Plant response rating, Cupgrass, Woolly [4, 16]: 95
- Plant response rating, Cupgrass, Woolly [4, 17]: 10
- Plant response rating, Cupgrass, Woolly [4, 18]: 65
- Plant response rating, Cupgrass, Woolly [4, 19]: 65
- Plant response rating, Nutsedge, Yellow [5, 20]: 45
- Plant response rating, Nutsedge, Yellow [5, 14]: 60
- Plant response rating, Nutsedge, Yellow [5, 15]: 70
- Plant response rating, Nutsedge, Yellow [5, 16]: 75
- Plant response rating, Nutsedge, Yellow [5, 17]: 55
- Plant response rating, Nutsedge, Yellow [5, 18]: 65
- Plant response rating, Nutsedge, Yellow [5, 19]: 85
- Plant response rating, Bromegrass, Downy [6, 20]: 5
- Plant response rating, Bromegrass, Downy [6, 13]: 0
- Plant response rating, Bromegrass, Downy [6, 14]: 30
- Plant response rating, Bromegrass, Downy [6, 15]: 35
- Plant response rating, Bromegrass, Downy [6, 16]: 45
- Plant response rating, Bromegrass, Downy [6, 17]: 0
- Plant response rating, Bromegrass, Downy [6, 18]: 0
- Plant response rating, Bromegrass, Downy [6, 19]: 0
- Plant response rating, Pigweed [7, 14]: 100
- Plant response rating, Pigweed [7, 15]: 100
- Plant response rating, Pigweed [7, 16]: 100
- Plant response rating, Pigweed [7, 17]: 90
- Plant response rating, Pigweed [7, 18]: 100
- Plant response rating, Pigweed [7, 19]: 100
- Plant response rating, Wheat [8, 20]: 0
- Plant response rating, Wheat [8, 14]: 5
- Plant response rating, Wheat [8, 15]: 10
- Plant response rating, Wheat [8, 16]: 60
- Plant response rating, Wheat [8, 17]: 0
- Plant response rating, Wheat [8, 18]: 0
- Plant response rating, Wheat [8, 19]: 0
- Plant response rating, Flood, Barnyardgrass [9]: 45
- Plant response rating, Barnyardgrass [9, 21]: 0
- Plant response rating, Barnyardgrass [9, 22]: 0
- Plant response rating, Barnyardgrass [9, 23]: 20
- Plant response rating, Flood, Sedge, Umbrella [10]: 75
- Plant response rating, Sedge, Umbrella [10, 21]: 30
- Plant response rating, Sedge, Umbrella [10, 22]: 40
- Plant response rating, Sedge, Umbrella [10, 23]: 50
- Plant response rating, Flood, Ducksalad [11]: 40
- Plant response rating, Ducksalad [11, 21]: 0
- Plant response rating, Ducksalad [11, 22]: 0
- Plant response rating, Ducksalad [11, 23]: 0
- Plant response rating, Flood, Rice [12]: 15
- Plant response rating, Rice [12, 21]: 0
- Plant response rating, Rice [12, 22]: 15
- Plant response rating, Rice [12, 23]: 15

SMILES: CCCCc1ncc(C(=O)C2=C(O)CCCC2=O)c(=O)n1-c1cccc(C)c1 [Compound 63]
- Plant response rating, Bermudagrass [1, 13]: 98
- Plant response rating, Bermudagrass [1, 14]: 85
- Plant response rating, Bermudagrass [1, 15]: 85
- Plant response rating, Bermudagrass [1, 16]: 95
- Plant response rating, Bermudagrass [1, 17]: 75
- Plant response rating, Bermudagrass [1, 18]: 98
- Plant response rating, Bermudagrass [1, 19]: 98
- Plant response rating, Lambsquarters [2, 13]: 100
- Plant response rating, Lambsquarters [2, 14]: 95
- Plant response rating, Lambsquarters [2, 15]: 98
- Plant response rating, Lambsquarters [2, 16]: 98
- Plant response rating, Lambsquarters [2, 17]: 98
- Plant response rating, Lambsquarters [2, 18]: 98
- Plant response rating, Lambsquarters [2, 19]: 100
- Plant response rating, Surinam Grass [3, 20]: 10
- Plant response rating, Surinam Grass [3, 14]: 25
- Plant response rating, Surinam Grass [3, 15]: 35
- Plant response rating, Surinam Grass [3, 16]: 75
- Plant response rating, Surinam Grass [3, 17]: 0
- Plant response rating, Surinam Grass [3, 18]: 0
- Plant response rating, Surinam Grass [3, 19]: 55
- Plant response rating, Cupgrass, Woolly [4, 20]: 50
- Plant response rating, Cupgrass, Woolly [4, 13]: 10
- Plant response rating, Cupgrass, Woolly [4, 14]: 60
- Plant response rating, Cupgrass, Woolly [4, 15]: 65
- Plant response rating, Cupgrass, Woolly [4, 16]: 65
- Plant response rating, Cupgrass, Woolly [4, 17]: 0
- Plant response rating, Cupgrass, Woolly [4, 18]: 0
- Plant response rating, Cupgrass, Woolly [4, 19]: 0
- Plant response rating, Nutsedge, Yellow [5, 20]: 20
- Plant response rating, Nutsedge, Yellow [5, 14]: 20
- Plant response rating, Nutsedge, Yellow [5, 15]: 50
- Plant response rating, Nutsedge, Yellow [5, 16]: 60
- Plant response rating, Nutsedge, Yellow [5, 17]: 10
- Plant response rating, Nutsedge, Yellow [5, 18]: 15
- Plant response rating, Nutsedge, Yellow [5, 19]: 25
- Plant response rating, Bromegrass, Downy [6, 20]: 10
- Plant response rating, Bromegrass, Downy [6, 13]: 0
- Plant response rating, Bromegrass, Downy [6, 14]: 20
- Plant response rating, Bromegrass, Downy [6, 15]: 20
- Plant response rating, Bromegrass, Downy [6, 16]: 40
- Plant response rating, Bromegrass, Downy [6, 17]: 0
- Plant response rating, Bromegrass, Downy [6, 18]: 0
- Plant response rating, Bromegrass, Downy [6, 19]: 0
- Plant response rating, Pigweed [7, 20]: 85
- Plant response rating, Pigweed [7, 14]: 95
- Plant response rating, Pigweed [7, 15]: 95
- Plant response rating, Pigweed [7, 16]: 100
- Plant response rating, Pigweed [7, 17]: 95
- Plant response rating, Pigweed [7, 18]: 98
- Plant response rating, Pigweed [7, 19]: 100
- Plant response rating, Wheat [8, 20]: 0
- Plant response rating, Wheat [8, 14]: 0
- Plant response rating, Wheat [8, 15]: 0
- Plant response rating, Wheat [8, 16]: 10
- Plant response rating, Wheat [8, 17]: 0
- Plant response rating, Wheat [8, 18]: 0
- Plant response rating, Wheat [8, 19]: 0
- Plant response rating, Flood, Barnyardgrass [9]: 10
- Plant response rating, Barnyardgrass [9, 21]: 0
- Plant response rating, Barnyardgrass [9, 22]: 0
- Plant response rating, Barnyardgrass [9, 23]: 0
- Plant response rating, Flood, Sedge, Umbrella [10]: 0
- Plant response rating, Sedge, Umbrella [10, 21]: 0
- Plant response rating, Sedge, Umbrella [10, 22]: 0
- Plant response rating, Sedge, Umbrella [10, 23]: 0
- Plant response rating, Flood, Ducksalad [11]: 40
- Plant response rating, Ducksalad [11, 21]: 0
- Plant response rating, Ducksalad [11, 22]: 20
- Plant response rating, Ducksalad [11, 23]: 40
- Plant response rating, Flood, Rice [12]: 10
- Plant response rating, Rice [12, 21]: 0
- Plant response rating, Rice [12, 22]: 0
- Plant response rating, Rice [12, 23]: 0

From US8952024B2, “Herbicidal pyrimidone derivatives” (E I du Pont de Nemours and Company, priority 2009, dated 2015)
